Article PMC11481179, “Development and Application of Reversible and Irreversible Covalent Probes for Human and Mouse Cathepsin‐K Activity Detection, Revealing Nuclear Activity” (Advanced Science, 2024)
pIC50: −log10 of the molar value.

How the values were obtained:
U-87 MG cells = assay: Cell viability assay (methylene blue); type: cell-based, human; details: 48 h incubation
Description: U-2 OS, U-87 MG, and enriched monocyte cells were grown at 370 C with 5% of CO2 in the
respective medium as described previously. Cells were seeded (1500 cells/well in 96 wells
plate) one day before the incubation with indicated probe or inhibitor at various concentrations.
After 48 h cells were fixed, and viability was measured by quantitative colorimetric assay using
methylene blue according to the procedure reported by Ben-Bassat et al. The data were
expressed as a percentage of control; data represent the mean of 2 experiments with triplicates
for each treatment (± standard deviation).
Fluorescent imaging of CTSK activity in lung tissue: Freshly resected human lung cancer and
normal lung tissues or mouse normal lung and primary lung cancer were embedded in OCT,
frozen in liquid nitrogen, and kept at - 80° C. Tissues were sectioned into 10 μm thick slices
using a cryostat (Leica). The slides were defrosted and washed with 1X PBS. Then the slides
were pretreated with DMSO or GD30 (5 µM) in buffer acetate for 1 h at 37° C. Afterward,
GD32 (0.75uM) or DMSO in buffer acetate were applied to the slides for 4 h at 37° C. Three
short washes with 1X PBS were done and the slides were left in 1X PBS for overnight
incubation at 4° C. The next day, slides were mounted with DAPI-Fluoromount-G® before
visualization by confocal microscopy. Olympus FV10i was used for human samples, whereas
Zeiss was used for mouse samples.
Details of the synthesis of the compounds
Synthesis of Compound (2)

[1] = molecular target: T1, endogenous CTSK in intact U-2 OS cells (Homo sapiens, UniProt P43235); assay: Labeling of endogenous CTSK in intact cells, fluorescent SDS-PAGE; type: cell-based; details: inhibitor 5 µM, 2 h, then GD32 5 µM
T1 construct: ability to label endogenous CTSK activity in intact cells; endogenous in cells; host or cells: U-2 OS
T1 sequence (P43235 115-329): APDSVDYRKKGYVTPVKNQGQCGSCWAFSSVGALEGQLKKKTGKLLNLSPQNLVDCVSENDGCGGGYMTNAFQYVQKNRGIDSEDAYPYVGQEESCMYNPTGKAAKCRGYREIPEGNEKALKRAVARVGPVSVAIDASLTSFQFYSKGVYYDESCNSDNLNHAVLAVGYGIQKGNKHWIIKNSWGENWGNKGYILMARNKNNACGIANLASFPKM
Description: To test probe selectivity and the ability to label endogenous CTSK activity in intact cells, three cell lines were selected: human osteosarcoma MG‐63 and U‐2 OS, and human glioblastoma U‐87 MG; all cell lines express CTSK along with other lysosomal cathepsins.^[ [44] ^] First, the ABPs were incubated with intact U‐2 OS cells for different durations of time, and the probe selectivity toward CTSK was examined, with a pan cathepsin ABP, GB123, used as a control that labels CTS B, K, L, and S in cells. After cell lysis, the probe‐labeled enzymes were resolved and detected by a fluorescent scan of the SDS‐PAGE. […] Specifically, intact MG‐63 cells required a 5 h incubation (Figure 2b,c), while U‐87 MG cells required a 2 h incubation (Figure 2d).
Figure 2 Labeling of endogenous CTSK in intact cells. a) U2‐OS cells were treated with DMSO or 5 µM of the indicated inhibitors in culture medium, for 2 h, then with indicated ABPs [5 µM] in a culture medium for indicated times, followed by cell lysis, SDS‐PAGE separation, and fluorescent scanning of the gel at 635/670 nm. An immunoblot of CTSK of the same gel is presented below. b) Intact MG63 cells were treated with GD32 5 µM in the culture media for indicated times, cell lysates were analyzed as in a. CTSK immunoblot is presented, pro and mature CTSK are indicated by arrows. c) MG63 cells and d) U87MG cells were treated with DMSO, or 5 µM of indicated inhibitors in culture medium for 2 h, followed by incubation with 5 µM of indicated probes for 5 h (GD32 and GD42) and 2 h (GB123), cell lysates were analyzed by fluorescent SDS PAGE as in a. […] In (c) a CTSK immunoblot of a representative MG63 lane on the right. e) Labeling of active mature CTSK by GD32 in A549 and U2‐0S cells in externally adjusted different pH. Cells were incubated with 5 µM GD32 for 24 h in growth media at indicated pHs, prior to the cell lysis, cell lysates were analysed as in a. CTSK immunoblot below. f) A549 cells were incubated with increasing concentrations of GD30 for 2 h at pH = 5, followed by the incubation with 5 µM GD32 for 24 h prior to the cell lysis, cell lysates were analyzed as in a. g) Intact U‐87 MG cells or U‐87 MG cell lysates were treated with 5 µM GD32 for 2 h, the intact cells were then lysed and all lysates were analyzed as in (a). h) Intact or lysates of U‐87MG were treated with GD32 for 2 h then immunoprecipitation was done with an anti‐CTSK antibody. Input (I), immunoprecipitation (IP), and output (O) were separated by a 14% SDS‐PAGE and scanned for fluorescence. The gel was then blotted and reacted with an anti‐cystatin B antibody below. ODN (Odanacatib), GB111 (GB111‐NH2), mCTSK (mature CTSK). […]
deoxycholate). After adding sample buffer, samples were boiled for 10 minutes, and analyzed […]
lysates were analyzed as described above. […]

CTSK = molecular target: T2, CTSK (Homo sapiens, UniProt P43235); assay: In vitro kinetic evaluation of cathepsin inhibition, fluorescent substrate Z-FR-AMC; type: biochemical
T2 sequence (P43235 115-329): T1 sequence (P43235 115-329)
Excerpt: (§1) used for TLC. Phosphate Buffer Saline (PBS) was purchased from Biological Industries (pH = […]
(§2) 7.4) and was used as a buffer system in all experiments if not indicated otherwise. […]
(§3) Recombinant human CTSB, CTSK, CTSL, and CTSS were supplied by B. Turk (J.
(§4) Stefan Institute).[1] […]
Fluorescent gels were scanned by a Typhoon FLA 9500 flatbed laser scanner (GE Healthcare […]
Bio-Sciences AB, Uppsala, Sweden). BioRad ChemiDox XRS+ was used for western blot […]
analysis. Olympus FV10i inverted microscope (Tokyo,Japan) with Fluoview software or Zeiss […]
Confocal LSM 980 with Airyscan (Germany) with Zen software were used for confocal […]
(§5) In vitro kinetic evaluation of labeling recombinant cathepsins:
(§6) Reactions were monitored for 30 min at 37° C in 96-well black flat-bottom microplates […]
(Greiner, Germany) using Tecan […] M1000 pro plate reader (Tecan, Switzerland), […]
(§7) substrates Z-RR-AMC (CTSL) or Z-FR-AMC (CTSS, CTSB and CTSK), and excitation and […]
emission wavelengths of 370 and 460 nm, respectively. Cathepsin concentrations in the assay were 0.4 nM (CTSK) or 5 nM (CTSS, CTSB, and CTSL). The buffer was 100 mM Na2HPO4/NaH2PO4, 50 mM NaCl, 5 mM DTT, 0,1% Peg-6000, pH 6. For irreversible inhibitors, reaction data were fitted to the one-phase association formula in GraphPad Prism 9 software: Y=Y0 + (Plateau-Y0)*(1-exp(-K*X)) where in this case Y0 and Y represent fluorescence signal at times 0 and t, respectively, K represent the observed reaction rate kobs and X the inhibitor concentration. Inactivation rates at each inhibitor concentration were […]
maximal rate of inactivation (kinact) was obtained as the asymptote from equation […]
for each X, and Kiapp is the apparent inhibition constant. Ki values were calculated from IC50 or from Kiapp using formulas Ki = Kiapp / (1 + Km/S) and IC50 = E0/2 + Kiapp, where Km stands for Michalis-Menten constant, S for substrate concentration and E0 for cathepsin concentration.
(§8) The highest inhibitor concentrations in the assay were 50 µM. Measurements were performed in several independent duplicates. Average values are presented with standard deviations. […]

CTSS = CTSS (Homo sapiens, UniProt P25774); assay: as above; type: biochemical
Description: as §1, §2, §3, §4, §5, §6
(Greiner, Germany) using Tecan INFINITE M1000 pro plate reader (Tecan, Switzerland), […]
as §7
emission wavelengths of 370 and 460 nm, respectively. Cathepsin concentrations in the assay were 0.4 nM (CTSK) or 5 nM (CTSS, CTSB, and CTSL). The buffer was 100 mM Na2HPO4/NaH2PO4, 50 mM NaCl, 5 mM DTT, 0,1% Peg-6000, pH 6. For irreversible inhibitors, reaction data were fitted to the one-phase association formula in GraphPad Prism 9 software: Y=Y0 + (Plateau-Y0)*(1-exp(-K*X)) where in this case Y0 and Y represent fluorescence signal at times 0 and t, respectively, K represent the observed reaction rate kobs and X the inhibitor concentration. Inactivation rates at each inhibitor concentration were obtained by subtracting the inactivation observed in the control sample: kobs – kctrl. The maximal rate of inactivation (kinact) was obtained as the asymptote from equation Y = kinact*X/(Kiapp + X) where X is inhibitor concentration, Y is the observed inactivation rate for each X, and Kiapp is the apparent inhibition constant. Ki values were calculated from IC50 or from Kiapp using formulas Ki = Kiapp / (1 + Km/S) and IC50 = E0/2 + Kiapp, where Km stands for Michalis-Menten constant, S for substrate concentration and E0 for cathepsin concentration.
as §8

Sequence of CTSS (P25774 115-331): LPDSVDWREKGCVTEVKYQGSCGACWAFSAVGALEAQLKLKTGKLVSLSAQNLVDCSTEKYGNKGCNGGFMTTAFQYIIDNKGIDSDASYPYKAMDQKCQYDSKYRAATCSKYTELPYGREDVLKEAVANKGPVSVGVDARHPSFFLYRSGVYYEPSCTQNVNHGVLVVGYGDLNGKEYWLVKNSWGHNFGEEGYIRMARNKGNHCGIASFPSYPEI

| effect of inhibitor preincubation on GD32-labeled CTSK band [1] | mode of inhibition (CTSK; CTSK) | pIC50 (CTSK; CTSK 0.4 nM, tight binding) | mode of inhibition (CTSS; CTSS) | pIC50 (CTSS; CTSS 5 nM) | Compound | cytotoxicity (U-87 MG cells) |
| --- | --- | --- | --- | --- | --- | --- |
| depletion of the CTSK‐specific band | – | – | – | – | Cc1cccc(C)c1C(=O)OCC(=O)[C@H](CCCCN)NC(=O)[C@H](Cc1ccccc1)NC(=O)OCc1ccccc1 [GB111‐NH2, reference compound] | exhibited cytotoxicity |
| depletion of the CTSK‐specific band | Reversible [Tight binding] | 9.03 | Reversible | 6.85 | CC(C)(F)C[C@H](N[C@@H](c1ccc(-c2ccc(S(C)(=O)=O)cc2)cc1)C(F)(F)F)C(=O)NC1(C#N)CC1 [ODN, odanacatib, reference compound] | – |
